Measured values published in patent publication US20140343159A1, “FORMULATION OF SMALL ADRENERGIC AGONIST SALT FORMS IN ORGANIC SOLVENTS” (PROCERTUS BIOPHARM, INC., priority 2011, published 2014).

Legend:
human skin = experiment: Skin blanch response in human skin following topical application; format: in vivo; conditions: 600 mM solution in 70:30 ethanol:water compared with supersaturated 300 mM (−) norepinephrine-tartrate
Experimental: Appropriate weights of each dry norepinephrine salt were weighed into clear glass vials, and appropriate volumes of ethanol and water at a ratio of 70:30, by volume, were added to achieve the indicated norepinephrine concentrations. The (+/−) norepinephrine-HCl dissolved to clarity with 5 second mixing at room temperature, and the (−) norepinephrine-tartrate required heating to 60° C. for 5 minutes and then mixing to clarify. 25 μL aliquots of each formulation were applied using a pipettor over multiple 2×2 cm patches of skin on volunteer's arm over a 20 second period. Images to record skin blanch onset, degree and duration were begun at 2 minute post-application. % Skin Blanch scores were assigned by visual evaluation. 100% Skin Blanch equaled the skin blanch seen after pressing firmly on the skin and quickly releasing.
Equal concentrations (300 mM) of the (−) norepinephrine enantiomer, either alone as the tartrate salt or in the presence of an equal amount of the (+) enantiomer HCl salt, were applied to human skin in the ethanol:water (70:30) delivery vehicle, and the pharmacologic efficacy of the (−) norepinephrine was scored based upon its ability to induce a skin blanch response by binding to al adrenergic receptors in the smooth muscle cells of the subcutaneous dermal blood vessels. […]

[1] = format: physicochemical
Experimental: (§1) Known weights of (−) norepinephrine-tartrate dry powder were added to individual, 2.0 ml clear glass vials. An appropriate volume of ethanol and water at a ratio of 70:30 by volume solvent was then added to achieve the indicated concentrations. Sealed vials were vortexed for five seconds and then left at room temperature for 24 hr in the dark before examination to determine turbidity of liquid due to undissolved material.
Known weights of (−) norepinephrine-tartrate or (+/−) norepinephrine-HCl dry powders were added to individual, 2.0 ml, clear glass vials. An appropriate volume of ethanol to water (70:30) solvent was then added to achieve the indicated concentrations. Sealed vials were vortexed for five seconds and then left at room temperature for 24 hr in the dark before examination to determine turbidity of liquid due to undissolved material. Table 2, below, provides the solubility of (+/−) norepinephrine-HCl and (−) norepinephrine-tartrate in topical delivery vehicle of ethanol and water (70:30).
as §1, with “the indicated norepinephrine salts” for “(−) norepinephrine-tartrate dry powder”, “ml,” for “ml”, “of” for “of ethanol and water at a ratio of”, “(ethanol:water)” for “by volume”, “hr” for “hr in the dark”

[2] = Stability of (−) norepinephrine-HCl dissolved in water at 1000 mM; format: physicochemical; conditions: 4° C. and 24° C., weeks/months following formulation
Experimental: (−) norepinephrine-HCl dissolved in water at 1000 mM is stable at 4° C. and 24° C. as determined by the absence of precipitate or colored oxidation products in the weeks/months following initial formulation. Previous formulations of norepinephrine-tartrate in saline (e.g., Levophed®, Hospira, Inc., Lake Forest, Ill.) have norepinephrine concentrations of 1-5 mM.
(−) norepinephrine-HCl was weighed into a glass vial. An appropriate volume of N2-purged water ([…] with vigorous N2 bubbling and stir bar) was delivered to the vial. The vial headspace was flushed with N2 gas and the vial was sealed. The vial was vortexed for 5 seconds to produce a clear solution. A weighed amount of dry citric acid solid was added to the (−) norepinephrine-HCl solution, the vial headspace was flushed with N2 and the vial was sealed. The vial was vortexed until the solution was clear. 200 μl aliquots of (−) norepinephrine-HCl+citric acid solution were added to 2.0 ml, clear, glass vials (previously rinsed with ethanol and dried). The vial headspaces were optionally flushed with N2 gas and the vials were sealed. 3.0 ml of (−) norepinephrine-HCl+citric acid solution was transferred to a glass vial, an appropriate dry weight of sodium EDTA was added to the vial, the vial headspace was flushed with N2 gas, the vial was sealed and the vial was vortexed until clear. […]

radiation-treated rats [3] = experiment: Radiodermatitis in radiation-treated rats after topical vasoconstrictor; format: in vivo, rat; conditions: two rats, 600 mM in ethanol:water (70:30) delivery vehicle applied prior to irradiation (FIG. 1)
Text: In the model, a topical vasoconstrictor was applied to a shaved area on the backs of rats prior to irradiation with a Cs^137 source. The severity of radiodermatitis was scored on day 13. Vasoconstriction at the topical treatment site was evidenced by the transient occurrence of a visible skin blanch that correlates with therapeutic efficacy in the rat radiodermatitis model. This skin blanch may serve as a surrogate efficacy marker for clinical studies. The general strategy of using topical vasoconstrictors to prevent these cancer therapy side effects is addressed in U.S. Pub. No 2007/0077219, which is incorporated by reference in its entirety herein.

radiation-treated rats [4] = conditions: topical, applied prior to irradiation of rat skin; cited from earlier work
β2 adrenergic receptor = β2 adrenergic receptor (Homo sapiens, UniProt P07550); conditions: cited from earlier work
[5] = super-saturated solutions for topical application; cited from earlier work

Chain of β2 adrenergic receptor (P07550 whole entry, species assumed): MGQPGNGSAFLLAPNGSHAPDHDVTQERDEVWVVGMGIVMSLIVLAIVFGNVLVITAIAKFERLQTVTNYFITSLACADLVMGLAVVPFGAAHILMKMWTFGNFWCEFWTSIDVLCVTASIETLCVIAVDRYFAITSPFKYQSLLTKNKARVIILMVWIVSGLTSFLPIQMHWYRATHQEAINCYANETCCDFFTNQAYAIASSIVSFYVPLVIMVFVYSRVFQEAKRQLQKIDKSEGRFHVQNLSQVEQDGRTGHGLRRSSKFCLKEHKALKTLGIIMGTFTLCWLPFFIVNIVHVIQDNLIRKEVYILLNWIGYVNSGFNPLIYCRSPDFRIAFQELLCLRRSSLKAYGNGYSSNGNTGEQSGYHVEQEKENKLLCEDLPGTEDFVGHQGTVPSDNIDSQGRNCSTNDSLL

Compound: Cl.NCC(O)c1ccc(O)c(O)c1 (racemic) [(+/−) norepinephrine-HCl]
- vasoconstrictor activity in inducing a skin blanch response (human skin): at least the same activity
- maximum solubility [1]: at least 2000 mM
- solubility relative to (−) norepinephrine-tartrate [1]: at least 10 fold

Compound: Cl.NC[C@H](O)c1ccc(O)c(O)c1 [(−) norepinephrine-HCl]
- stability by absence of precipitate or colored oxidation products [2]: stable
- maximum solubility [1]: at least 2000 mM
- occurrence of radiodermatitis (radiation-treated rats [3]): absence of radiodermatitis

Compound: CNC[C@H](O)c1ccc(O)c(O)c1 [epinephrine]
- protection against development of radiation dermatitis (radiation-treated rats [4]): complete protection

Compound: NC[C@H](O)c1ccc(O)c(O)c1 [norepinephrine]
- binding to the β2 adrenergic receptor (β2 adrenergic receptor): does not bind
- protection against development of radiation dermatitis (radiation-treated rats [4]): the same protection

Compound: (−) norepinephrine-tartrate
- stability of super-saturated solution [5]: stable for only a few hours
- maximum solubility [1]: 200 mM
- solubility limit [1]: about 200 mM
